Source: patent US7888355B2, “Compositions and methods for inhibiting growth and metastasis of melanoma” (Burnham Institute for Medical Research, priority 2007, dated 2011)
Read-outs that look alike come from different tables or passages of the source.

Experiments:
[1] = tested on: SW1 cells; assay: cells; type: cell-based, mouse; conditions: for effect of JNK inhibitor SP600125 on compound-induced cell death: 30-minute pretreatment with SP600125 (10 μM), then compound 20 h
Description: Cell lines. Mouse melanoma (SW1) and human melanoma (LU1205) cells were maintained in DMEM supplemented with 10% FBS, L-glutamine and antibiotics. The human melanoma cell lines MEWO and WM115 were maintained in RPMI supplemented with 10% FBS and antibiotics. Primary mouse melanocytes were cultured in F-12 media supplemented with 10% FBS, antibiotics, IBMX (isobuthyl-methylxantine), bovine pituitary extract, and TPA.
Mitochondrial activity and apoptosis. Cells were exposed to the chemicals for 12-48 hours as indicated in Results. To measure changes in mitochondrial activity reflective of general cell viability, the ATPLITE ATP detection assay was used according to the manufacturer's recommendations (Perkin Elmer). Apoptosis analysis was performed by flow cytometry of PI-stained cells. The percentage of cells to the left of the diploid G0/1 peak, characteristic of hypodiploid cells that have partially lost DNA, was calculated as percentage of apoptotic cells (Bhoumik et al., PNAS 101:4222-7, 2004). Analysis of changes in Caspase 8 expression pattern was performed using immunoblot analysis. […]
Characterization of CSL and AIGA effects on mouse melanoma cells. The structures of AIGA and CSL are depicted in FIGS. 1a and 1b. AIGA was tested for cytotoxicity at concentrations ranging between 0.1 and 2 μM, whereas CSL was used at a concentration of 0.01 to 0.3 μM. SW1 cells or normal melanocytes were seeded on 96 well plates and 24 h late, cells were treated with the indicated concentrations of ATF2 50-100 peptide, AIGA, or CSL for 20 h. ATF2 50-100 peptide (cloned in mammalian expression vector in frame with penetratin was transfected with the aid of lipofectamine) was used as a positive control. ATP levels were used as an indicator of cell viability and were measured using the ATPLITE ATP detection assay kit. The number of surviving cells upon AIGA treatment was normalized to the number of surviving cells under the control treatment, and the normalized number was designated as the “% Viability.” Results shown in FIGS. 1c-1f represent 3 experiments. Treatment of SW1 melanoma cells with 1 μM of AIGA reduced the viability of melanoma cells to 10%, (FIG. 1c). Treatment of the SW1 cells with 0.05 μM of CSL reduced the viability of melanoma cells to 50%, and 0.1 μM reduced it to 10% (FIG. 1d). […] Normal melanocytes and fibroblasts were used as a control.
Thus, the two compounds were evaluated to determine if they require JNK activity for their effects on melanoma cells. To this end, the ability of AIGA or CSL to affect the viability of melanoma cells in the presence of a JNK inhibitor was tested. SW1 cells, with or without a 30-minute pretreatment with the JNK inhibitor SP600125 (10 μM), were contacted with AIGA or CSL at the indicated concentrations for 20 h. ATP levels were used to measure the cell viability using the ATPLITE kit. The number of surviving cells upon AIGA or CSL treatment was normalized to the number of surviving cells under the control treatment, and the normalized number was designated as the “% Viability.” Shown are representative results from 2 experiments. […] Of note, inhibition of JNK activity was more pronounced at lower concentrations of CSL compared with AIGA. […] To assess whether these compounds affect JNK activity, changes in JNK phosphorylation on residues 183/185, which are required for its kinase activity, were monitored. Western blot analysis for JNK phosphorylation on residues 183/185 was performed on protein extracts that were prepared from cells treated with AIGA at concentrations of 0.5 μM, 1.0 μM, and 2.0 μM and a control with no AIGA treatment. Duplicate samples were treated with JNK inhibitor (SP600125). Total level of JNK was analyzed in parallel. […]

[2] = tested on: AP1/c-Jun transcriptional activity; assay: TRE-luciferase reporter assay in SW1 cells; type: cell-based, mouse; conditions: 8 h; for AP1/c-Jun transcriptional activity (TRE-Luc): compounds compared with ATF2 peptide; for dose from which c-Jun transcriptional activity is induced: TRE-Luc
Description: Constructs and inhibitors. An ATF2 peptide (aa 51-100) was cloned into HA-tagged pcDNA3 vector as previously described (Bhoumik et al., Cancer Res 64:8222-30, 2004). 5×Jun2tk-Luc (marker for ATF2 transcriptional activities), 5×TRE-tk-Luc (marker for AP1/c-Jun transcriptional activities) and 2×NF-B-Luc were previously described (Bhoumik et al., J Clin Invest 110:643-50, 2002). Pharmacological inhibitor of JNK (SP600125) was purchased (EMD biosciences) and added (5 μM) to cultured cells as indicated in Results.
Transcriptional analysis. Transient transfection of different reporter constructs into melanoma cells was performed using LIPOFECTAMINE PLUS transfection reagent (Invitrogen). Luciferase activity was determined as previously described (Bhoumik et al., PNAS 101:4222-7, 2004).
The effects of the two compounds on c-Jun transcriptional activity in mouse melanoma SW1 cells was assessed. SW1 cells were transfected with the TRE-luciferase plasmid and 24 h later, cells were treated with the indicated concentrations of AIGA or CSL for 8 h before proteins were prepared and level of luciferase activity was measured. ATF250-100 peptide was used as a positive control. Data shown represent results from 3 experiments. […] AIGA induced c-Jun transcriptional activity at doses starting from 0.1 μM (FIG. 2a).

[3] = tested on: normal human breast cultures MCF10; assay: Toxicity on normal human breast cultures; type: cell-based
[4] = tested on: phosphorylation of c-Jun; assay: Western blot for c-Jun phosphorylation in SW1 cells; type: cell-based, mouse; conditions: AIGA 0.5 or 2.0 μM, CSL 0.5 or 1.0 μM, 20 h
Description: Immunoblot analysis. Proteins prepared from cells at the indicated time points using RIPA buffer and 75 μg were separated on SDS-PAGE followed by immunoblot analysis using the antibodies indicated. Antibodies used were as follows: anti-JNK (Santa Cruz), phospho-JNK (Promega Corp.; Madison, Wis.), phospho c-Jun (Cell Signaling Technology, Inc.; Danvers, Mass.), c-Jun (Santa Cruz Biotechnology, Inc.; Santa Cruz, Calif.) and Caspase 8 (BD Biosciences; San Jose, Calif.).
The activation of JNK by both compounds was confirmed upon analysis of its substrate c-Jun. SW1 cells were pretreated with the JNK inhibitor SP600125 followed by addition of AIGA (0.5 μM or 2.0 μM) or CSL (0.5 μM or 1.0 μM) for 20 h. Total protein extracts were used to determine the phosphorylation of c-Jun.

Structure (SMILES)	effect of JNK inhibitor SP600125 on compound-induced cell death [1]	viability at 1 µM ([1]; Mus musculus, 20 h, read-out: % Viability of SW1 melanoma cells) [%]	AP1/c-Jun transcriptional activity (TRE-Luc) [2]	dose from which c-Jun transcriptional activity is induced [2] [µM]	toxic effect on normal human breast cultures MCF10 [3]	c-Jun phosphorylation [4]	viability at 0.05 µM ([1]; Mus musculus, 0.05 μM, 20 h, read-out: % Viability of SW1 melanoma cells) [%]	viability at 0.1 µM ([1]; Mus musculus, 0.1 μM, 20 h, read-out: % Viability of SW1 melanoma cells) [%]	EC50 ([1]; Mus musculus, numeric EC50 cells of the column, read-out: Activity or EC50 (μM) in SW1 cells) [µM]	toxic effect on normal human breast cultures MCF10 ([3]; data not shown)
CC(=O)Oc1c2c(c(CC=C(C)C)c3c1C(=O)C1=C[C@@H]4CC5C(C)(C)OC(C/C=C(\C)C(=O)O)(C4=O)[C@@]15O3)OC(C)(CCC=C(C)C)C=C2 (some centres unmarked) [AIGA, Acetyl isogambogic acid]	attenuated the ability of AIGA or CSL to elicit the cell death	10	stronger activation of c-Jun transcription	≥ 0.1	Neither CSL nor AIGA elicited toxic effect	efficiently induced c-Jun phosphorylation				
CC1=C(O)C(=O)C=C2C1=CC=C1[C@@]2(C)CC[C@@]2(C)[C@@H]3C[C@](C)(C(=O)O)CC[C@]3(C)CC[C@]12C [Celastrol]	attenuated the ability of AIGA or CSL to elicit the cell death		stronger activation of c-Jun transcription	≥ 0.01		efficiently induced c-Jun phosphorylation, with CSL being more potent	50	10	~0.1	Neither CSL nor AIGA elicited toxic effect
